Blank lines part the entries; values can stand above or below the compound they belong to. Calls of active or inactive are those of the source.
How the values were obtained:
Cytochrome P450 2D6 = Cytochrome P450 2D6 (Homo sapiens, UniProt P10635);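 also: CYP2D6 member of a cytochrome P450 panel assay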
[1] = target: T1, Nucleotide-binding oligomerization domain-containing protein 1 (Homo sapiens, UniProt Q9Y239); assay: SAR analysis of NF-kappaB dependent luciferase using DAP as an inducer - Set 2. [Related pubchem assays (depositor defined):AID1566, AID1575, AID1578, AID1579, AID1849, AID1852, AID2264]; format: functional
T1 sequence (Q9Y239 whole entry): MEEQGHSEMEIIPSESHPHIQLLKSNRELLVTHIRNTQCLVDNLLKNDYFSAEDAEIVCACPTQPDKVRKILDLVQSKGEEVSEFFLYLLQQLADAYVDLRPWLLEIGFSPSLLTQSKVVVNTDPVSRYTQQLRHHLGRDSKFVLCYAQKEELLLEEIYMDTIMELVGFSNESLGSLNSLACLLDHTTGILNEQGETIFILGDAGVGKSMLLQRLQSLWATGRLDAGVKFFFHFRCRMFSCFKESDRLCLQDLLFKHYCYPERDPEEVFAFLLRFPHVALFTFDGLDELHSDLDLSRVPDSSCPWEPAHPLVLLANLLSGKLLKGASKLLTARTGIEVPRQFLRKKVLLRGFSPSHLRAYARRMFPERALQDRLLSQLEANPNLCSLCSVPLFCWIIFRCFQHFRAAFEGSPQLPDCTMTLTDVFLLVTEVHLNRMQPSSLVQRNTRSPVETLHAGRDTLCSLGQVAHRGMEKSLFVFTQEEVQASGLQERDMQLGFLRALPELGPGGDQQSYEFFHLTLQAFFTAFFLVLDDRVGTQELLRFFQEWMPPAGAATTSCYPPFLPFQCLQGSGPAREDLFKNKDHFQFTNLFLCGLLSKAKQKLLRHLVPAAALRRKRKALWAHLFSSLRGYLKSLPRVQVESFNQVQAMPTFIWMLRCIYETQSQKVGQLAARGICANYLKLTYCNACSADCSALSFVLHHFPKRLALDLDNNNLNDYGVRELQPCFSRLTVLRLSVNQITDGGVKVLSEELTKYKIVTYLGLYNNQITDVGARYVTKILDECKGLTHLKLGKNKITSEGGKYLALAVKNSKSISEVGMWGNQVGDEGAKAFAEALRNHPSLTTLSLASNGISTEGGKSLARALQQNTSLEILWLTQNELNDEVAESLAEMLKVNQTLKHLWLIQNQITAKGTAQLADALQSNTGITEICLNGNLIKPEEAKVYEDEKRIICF

Interleukin-8 [2] = target: T2, Interleukin-8 (Homo sapiens, UniProt P10145); assay: SAR analysis of Tumor necrosis factor alpha (TNF-alpha) induced IL-8 secretion in MCF-7/NOD1 cells - Set 2. [Related pubchem assays (depositor defined):AID1575, AID2250, AID2260]; format: functional, cell-based
Interleukin-8 [3] = target: T2, Interleukin-8; assay: SAR analysis of GM-Tri-DAP induced IL-8 secretion in MCF-7/NOD1 cells - Set 2. [Related pubchem assays (depositor defined):AID1575, AID1578, AID2333]; format: functional, cell-based
[4] = target: T3, Nucleotide-binding oligomerization domain-containing protein 2 (Homo sapiens, UniProt Q9HC29); assay: inhibition of NOD2 signaling – set 2, SAR follow-up (AID 2475); format: functional
HEK293 [5] = assay: SAR analysis of compounds that are cytotoxic to HEK293 - Set 2. [Related pubchem assays (depositor defined):AID1575, AID1578, AID1849, AID2001, AID2333, AID2334, AID2335, AID2337, AID2800]; format: functional, cell-based; details: Homo sapiens
[6] = target: T1, Nucleotide-binding oligomerization domain-containing protein 1; assay: SAR analysis of compounds that inhibit NOD1 - Set 3. [Related pubchem assays (depositor defined):AID1566, AID1575, AID1578, AID1849, AID1852, AID2333, AID2335, AID2466]; format: functional
Tumor necrosis factor [7] = target: T4, Tumor necrosis factor (Homo sapiens, UniProt P01375); assay: analog potency on TNFa NF-kB signaling – cell-based, set 3, SAR follow-up (AID 2801); format: functional
HEK293 [8] = assay: SAR analysis of compounds that are cytotoxic to HEK293 - Set 3. [Related pubchem assays (depositor defined):AID1575, AID1578, AID1848, AID1849, AID2001, AID2333, AID2334, AID2335, AID2337, AID2469]; format: functional, cell-based; details: Homo sapiens
[9] = target: T3, Nucleotide-binding oligomerization domain-containing protein 2; assay: inhibition of MDP-driven NOD2 NF-kB reporter – cell-based, set 3, SAR follow-up (AID 2799); format: functional
[10] = test system: Streptococcus sp. 'group A'; assay: Streptococcus pyogenes SK(-)GAS viability under kanamycin – luminescence, BacTiterGlo, confirmation, counter-screen for streptokinase expression inhibitor project, dose response (AID 1900); format: functional, organism-based
[11] = HPDE-C7 pancreatic duct cell viability loss – fluorescence, HTS (AID 430); format: functional, cell-based; details: Homo sapiens
[12] = viability loss of HPDE-C7K cells – cell-based, fluorescence, HTS, primary screen (AID 431); format: functional; details: Homo sapiens
Streptococcus = assay: GAS UMAA2166 growth inhibition – luminescence, BacTiterGlo, counter-screen for streptokinase expression inhibitor project, dose response (AID 1915); format: functional, organism-based;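 also: potency for reduction of bacterial viability or growth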
Exodeoxyribonuclease V = Exodeoxyribonuclease V (Escherichia coli (strain K12), UniProt P04993+P07648+P08394); assay: RecBCD inhibition via phage-restricted bacterial growth – absorbance, V66 E. coli, mutant T4 phage, counter-screen for AddAB inhibitor project, dose response (AID 492957); format: functional, cell-based, Escherichia coli str. K-12 substr. MG1655
[13] = Counterscreen for AddAB inhibitors: absorbance-based bacterial cell-based high throughput dose response assay for inhibitors of bacterial viability. [Related pubchem assays (depositor defined):AID435030, AID449728, AID449731, AID488942, AID488955, AID488956]; format: functional
[14] = target: Sphingosine 1-phosphate receptor 5 (Homo sapiens, UniProt Q9H228); assay: Late stage counterscreen assay for S1P4 antagonists: Fluorescence dose response cell-based screening assay for antagonists of the Sphingosine 1-Phosphate Receptor 5 (S1P5). [Related pubchem assays (depositor defined):AID1510, AID1524, AID1692, AID1853, AID2332, AID489009, AID489017]; format: functional
[15] = target: Sphingosine 1-phosphate receptor 3 (Homo sapiens, UniProt Q99500); assay: Late stage counterscreen assay for S1P4 antagonists: Fluorescence dose response cell-based screening assay for antagonists of the Sphingosine 1-Phosphate Receptor 3 (S1P3). [Related pubchem assays (depositor defined):AID1510, AID1524, AID1692, AID1853, AID2332, AID489009, AID489017]; format: functional
[16] = target: Sphingosine 1-phosphate receptor 1 (Homo sapiens, UniProt P21453); assay: Late stage counterscreen assay for S1P4 antagonists: Fluorescence dose response cell-based screening assay for antagonists of the Sphingosine 1-Phosphate Receptor 1 (S1P1). [Related pubchem assays (depositor defined):AID1510, AID1524, AID1692, AID1853, AID2332, AID489009, AID489017]; format: functional
[17] = target: Sphingosine 1-phosphate receptor 2 (Homo sapiens, UniProt O95136); assay: Late stage counterscreen assay for S1P4 antagonists: Fluorescence dose response cell-based screening assay for antagonists of the Sphingosine 1-Phosphate Receptor 2 (S1P2). [Related pubchem assays (depositor defined):AID1510, AID1524, AID1692, AID1853, AID2332, AID489009, AID489017]; format: functional
Tumor necrosis factor [18] = target: T4, Tumor necrosis factor; assay: analog potency on TNFa NF-kB signaling – cell-based, revised, SAR follow-up (AID 2337); format: functional
[19] = target: T1, Nucleotide-binding oligomerization domain-containing protein 1; assay: blockers of NOD1 pathway activity – revised, SAR follow-up (AID 2333); format: functional
[20] = target: T3, Nucleotide-binding oligomerization domain-containing protein 2; assay: PubChem AID 2334; format: functional
HEK293 [21] = assay: cells; details: Homo sapiens
Mu-type opioid receptor [22] = target: T5, Mu-type opioid receptor (Homo sapiens, UniProt P35372); assay: mu opioid receptor activators, image-based, SAR follow-up (AID 2352); format: functional
[23] = target: T6, Delta-type opioid receptor (Homo sapiens, UniProt P41143); assay: DOR agonists, SAR follow-up, image-based (AID 2370); format: functional
[24] = target: T7, Kappa-type opioid receptor (Homo sapiens, UniProt P41145); assay: kappa opioid receptor blockers, image-based, SAR follow-up (AID 2348); format: functional
Mu-type opioid receptor [25] = target: T5, Mu-type opioid receptor; assay: mu opioid receptor blockers – image-based, SAR follow-up (AID 2420); format: functional;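 also: compounds added before stimulation of receptor with agonist DAMGO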
[26] = target: T7, Kappa-type opioid receptor; assay: kappa opioid receptor activation potency – imaging, image-based, SAR follow-up (AID 2359); format: functional
[27] = target: T6, Delta-type opioid receptor; assay: delta opioid receptor blockers – image-based, SAR follow-up (AID 2357); format: functional
[28] = target: T7, Kappa-type opioid receptor; assay: kappa opioid receptor blockers, cell-based, luminescence, beta-arrestin, SAR follow-up (AID 2285); format: functional
[29] = Luminescence Cell-Based Dose Retest to Confirm Inhibitors of Cancer Stem Cells. [Related pubchem assays (depositor defined):AID2717, AID2721]; format: functional; details: Homo sapiens
[30] = target: Intestinal-type alkaline phosphatase (Mus musculus, UniProt P24822); assay: PubChem AID 488875; format: functional
[31] = target: T8, Intestinal-type alkaline phosphatase (Homo sapiens, UniProt P09923); assay: human intestinal alkaline phosphatase activators, dose response, biochemical, luminescence, uHTS hits (AID 463120); format: functional
[32] = target: T8, Intestinal-type alkaline phosphatase; assay: activation of human intestinal alkaline phosphatase – biochemical, luminescent, uHTS hits, set 2, dose response (AID 488817); format: functional;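 also: potency of activators that raise enzyme activity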
[33] = target: T9, Alkaline phosphatase, tissue-nonspecific isozyme (Homo sapiens, UniProt P05186); assay: activation of tissue-nonspecific alkaline phosphatase – biochemical, TNAP isozyme, human IAP uHTS hits, selectivity assay for human IAP activator project, dose response (AID 488886); format: functional;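 also: potency of compounds raising TNAP activity as a selectivity check on IAP activators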
T9 sequence (P05186 whole entry): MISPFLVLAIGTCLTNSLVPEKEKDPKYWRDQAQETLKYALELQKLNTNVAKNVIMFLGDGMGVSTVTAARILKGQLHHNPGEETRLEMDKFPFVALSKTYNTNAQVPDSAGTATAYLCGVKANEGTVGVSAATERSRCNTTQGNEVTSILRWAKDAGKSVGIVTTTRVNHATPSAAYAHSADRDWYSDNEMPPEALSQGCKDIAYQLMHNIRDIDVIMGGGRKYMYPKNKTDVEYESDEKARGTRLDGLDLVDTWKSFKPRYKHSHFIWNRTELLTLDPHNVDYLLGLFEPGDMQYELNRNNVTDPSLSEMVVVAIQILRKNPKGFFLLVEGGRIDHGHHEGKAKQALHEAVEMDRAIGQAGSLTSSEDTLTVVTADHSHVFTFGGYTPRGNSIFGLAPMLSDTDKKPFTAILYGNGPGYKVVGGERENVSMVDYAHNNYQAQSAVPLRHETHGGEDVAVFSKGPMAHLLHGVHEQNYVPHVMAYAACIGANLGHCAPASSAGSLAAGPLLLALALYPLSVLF

T7 sequence (P41145 whole entry): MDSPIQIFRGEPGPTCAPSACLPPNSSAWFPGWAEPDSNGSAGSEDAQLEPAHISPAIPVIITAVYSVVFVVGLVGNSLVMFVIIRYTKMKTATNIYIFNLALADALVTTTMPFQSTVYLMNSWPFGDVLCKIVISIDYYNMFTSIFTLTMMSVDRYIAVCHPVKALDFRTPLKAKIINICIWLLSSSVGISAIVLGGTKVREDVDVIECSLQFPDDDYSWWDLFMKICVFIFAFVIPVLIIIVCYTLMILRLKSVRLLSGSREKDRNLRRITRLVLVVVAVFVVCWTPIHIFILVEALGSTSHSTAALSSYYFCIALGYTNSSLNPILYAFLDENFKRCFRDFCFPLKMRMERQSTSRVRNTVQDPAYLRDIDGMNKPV
T3 sequence (Q9HC29 whole entry, the tested form may be a part): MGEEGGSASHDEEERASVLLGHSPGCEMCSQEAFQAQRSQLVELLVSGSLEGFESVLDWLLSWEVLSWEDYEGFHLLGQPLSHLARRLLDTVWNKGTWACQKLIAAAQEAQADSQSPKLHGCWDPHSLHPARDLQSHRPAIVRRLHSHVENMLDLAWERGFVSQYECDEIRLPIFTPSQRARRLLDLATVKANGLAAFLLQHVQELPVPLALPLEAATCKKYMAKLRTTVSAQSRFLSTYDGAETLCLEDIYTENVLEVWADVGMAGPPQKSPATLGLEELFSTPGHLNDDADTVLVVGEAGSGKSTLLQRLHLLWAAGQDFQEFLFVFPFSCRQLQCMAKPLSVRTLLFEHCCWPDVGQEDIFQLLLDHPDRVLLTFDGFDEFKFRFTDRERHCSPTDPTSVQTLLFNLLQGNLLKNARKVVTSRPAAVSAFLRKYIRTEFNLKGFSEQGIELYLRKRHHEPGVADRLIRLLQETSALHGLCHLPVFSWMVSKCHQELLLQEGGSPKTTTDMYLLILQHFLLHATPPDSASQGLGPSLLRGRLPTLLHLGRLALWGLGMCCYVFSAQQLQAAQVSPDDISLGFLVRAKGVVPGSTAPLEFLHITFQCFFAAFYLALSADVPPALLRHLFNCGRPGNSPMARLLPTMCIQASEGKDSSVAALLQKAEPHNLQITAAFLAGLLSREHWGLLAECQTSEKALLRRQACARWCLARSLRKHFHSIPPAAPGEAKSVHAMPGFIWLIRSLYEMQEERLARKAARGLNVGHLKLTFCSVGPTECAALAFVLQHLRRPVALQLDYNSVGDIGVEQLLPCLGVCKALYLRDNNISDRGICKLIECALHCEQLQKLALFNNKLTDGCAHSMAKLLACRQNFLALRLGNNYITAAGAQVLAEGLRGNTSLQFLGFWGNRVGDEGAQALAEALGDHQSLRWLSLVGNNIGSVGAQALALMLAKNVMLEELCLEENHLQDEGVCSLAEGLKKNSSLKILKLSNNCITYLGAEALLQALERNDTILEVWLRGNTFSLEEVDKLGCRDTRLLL
T6 sequence (P41143 whole entry): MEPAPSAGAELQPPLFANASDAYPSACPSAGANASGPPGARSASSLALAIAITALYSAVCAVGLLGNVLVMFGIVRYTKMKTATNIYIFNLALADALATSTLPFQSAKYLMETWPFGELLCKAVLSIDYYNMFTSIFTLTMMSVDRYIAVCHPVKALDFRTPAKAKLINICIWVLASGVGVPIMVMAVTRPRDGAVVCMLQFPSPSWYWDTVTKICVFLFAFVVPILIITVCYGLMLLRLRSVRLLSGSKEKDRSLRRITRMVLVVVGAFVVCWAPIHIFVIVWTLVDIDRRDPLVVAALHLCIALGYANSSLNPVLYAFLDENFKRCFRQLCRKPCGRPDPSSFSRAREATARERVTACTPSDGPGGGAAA
T2 sequence (P10145 whole entry): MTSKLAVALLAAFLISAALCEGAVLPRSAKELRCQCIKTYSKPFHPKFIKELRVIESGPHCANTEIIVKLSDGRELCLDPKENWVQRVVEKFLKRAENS
T4 sequence (P01375 whole entry): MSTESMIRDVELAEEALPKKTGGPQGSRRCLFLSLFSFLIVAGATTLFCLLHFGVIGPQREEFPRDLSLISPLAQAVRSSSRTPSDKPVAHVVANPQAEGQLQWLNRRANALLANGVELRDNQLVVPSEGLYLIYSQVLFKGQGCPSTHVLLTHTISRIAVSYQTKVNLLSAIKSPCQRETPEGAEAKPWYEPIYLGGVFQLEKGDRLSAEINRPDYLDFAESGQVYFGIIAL
T8 sequence (P09923 whole entry): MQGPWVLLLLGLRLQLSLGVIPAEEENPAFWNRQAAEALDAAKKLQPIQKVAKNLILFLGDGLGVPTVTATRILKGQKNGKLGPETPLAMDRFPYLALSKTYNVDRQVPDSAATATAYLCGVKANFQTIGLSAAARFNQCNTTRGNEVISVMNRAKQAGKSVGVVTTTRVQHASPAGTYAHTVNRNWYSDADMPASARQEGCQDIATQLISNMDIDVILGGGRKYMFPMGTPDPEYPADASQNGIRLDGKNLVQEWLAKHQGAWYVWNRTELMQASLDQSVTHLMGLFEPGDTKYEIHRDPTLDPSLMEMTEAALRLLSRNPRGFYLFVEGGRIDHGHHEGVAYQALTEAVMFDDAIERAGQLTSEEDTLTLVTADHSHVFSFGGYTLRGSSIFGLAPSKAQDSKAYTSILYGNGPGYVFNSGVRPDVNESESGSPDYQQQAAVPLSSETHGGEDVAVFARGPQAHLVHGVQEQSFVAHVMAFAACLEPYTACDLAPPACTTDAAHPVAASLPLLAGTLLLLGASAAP
T5 sequence (P35372 whole entry): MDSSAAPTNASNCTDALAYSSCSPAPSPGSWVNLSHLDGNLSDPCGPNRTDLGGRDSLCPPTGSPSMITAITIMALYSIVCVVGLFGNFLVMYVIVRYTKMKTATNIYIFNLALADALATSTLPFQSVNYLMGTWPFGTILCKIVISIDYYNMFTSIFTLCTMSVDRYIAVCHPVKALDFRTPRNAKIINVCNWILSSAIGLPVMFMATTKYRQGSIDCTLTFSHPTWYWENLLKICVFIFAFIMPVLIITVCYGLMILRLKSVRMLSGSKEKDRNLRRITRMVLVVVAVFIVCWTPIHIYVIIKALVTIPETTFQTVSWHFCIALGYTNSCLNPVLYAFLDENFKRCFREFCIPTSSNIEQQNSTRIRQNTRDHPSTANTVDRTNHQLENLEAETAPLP
Chain of Sphingosine 1-phosphate receptor 2 (O95136 whole entry): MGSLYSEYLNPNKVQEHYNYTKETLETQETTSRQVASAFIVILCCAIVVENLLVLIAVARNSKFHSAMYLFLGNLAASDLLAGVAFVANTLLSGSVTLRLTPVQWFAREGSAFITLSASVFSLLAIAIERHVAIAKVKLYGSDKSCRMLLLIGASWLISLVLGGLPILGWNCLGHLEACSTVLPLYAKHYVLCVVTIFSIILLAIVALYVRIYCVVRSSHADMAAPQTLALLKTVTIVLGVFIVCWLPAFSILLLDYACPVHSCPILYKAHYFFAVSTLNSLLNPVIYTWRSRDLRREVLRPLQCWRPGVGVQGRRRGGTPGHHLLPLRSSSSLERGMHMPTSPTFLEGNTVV
Chain of Intestinal-type alkaline phosphatase (Mus musculus, UniProt P24822) (P24822 whole entry): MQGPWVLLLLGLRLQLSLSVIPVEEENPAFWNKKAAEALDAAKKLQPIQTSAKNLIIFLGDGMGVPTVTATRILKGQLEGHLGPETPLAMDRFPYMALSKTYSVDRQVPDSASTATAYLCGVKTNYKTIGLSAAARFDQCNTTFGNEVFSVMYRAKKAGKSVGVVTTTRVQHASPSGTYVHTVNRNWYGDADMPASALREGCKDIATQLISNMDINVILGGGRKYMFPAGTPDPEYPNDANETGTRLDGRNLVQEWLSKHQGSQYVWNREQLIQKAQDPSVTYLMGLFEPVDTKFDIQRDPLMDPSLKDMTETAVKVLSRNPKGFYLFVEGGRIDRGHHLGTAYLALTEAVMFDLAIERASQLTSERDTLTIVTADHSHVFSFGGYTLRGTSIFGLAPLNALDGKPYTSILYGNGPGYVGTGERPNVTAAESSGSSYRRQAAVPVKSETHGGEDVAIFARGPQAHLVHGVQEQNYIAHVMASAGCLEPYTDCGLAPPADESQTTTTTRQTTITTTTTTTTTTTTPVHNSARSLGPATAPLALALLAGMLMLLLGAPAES
Chain of Sphingosine 1-phosphate receptor 3 (Q99500 whole entry): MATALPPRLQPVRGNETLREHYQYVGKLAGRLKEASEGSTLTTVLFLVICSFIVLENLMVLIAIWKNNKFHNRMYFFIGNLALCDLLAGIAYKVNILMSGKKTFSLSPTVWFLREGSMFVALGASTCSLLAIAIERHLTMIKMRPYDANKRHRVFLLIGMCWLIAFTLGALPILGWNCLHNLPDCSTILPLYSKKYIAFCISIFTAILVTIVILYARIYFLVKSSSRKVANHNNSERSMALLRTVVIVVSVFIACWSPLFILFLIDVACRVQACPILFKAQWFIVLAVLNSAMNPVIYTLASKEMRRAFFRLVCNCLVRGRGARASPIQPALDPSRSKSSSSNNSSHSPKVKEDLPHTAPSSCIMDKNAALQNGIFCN
Chain of Cytochrome P450 2D6 (P10635 whole entry, the tested form may be a part): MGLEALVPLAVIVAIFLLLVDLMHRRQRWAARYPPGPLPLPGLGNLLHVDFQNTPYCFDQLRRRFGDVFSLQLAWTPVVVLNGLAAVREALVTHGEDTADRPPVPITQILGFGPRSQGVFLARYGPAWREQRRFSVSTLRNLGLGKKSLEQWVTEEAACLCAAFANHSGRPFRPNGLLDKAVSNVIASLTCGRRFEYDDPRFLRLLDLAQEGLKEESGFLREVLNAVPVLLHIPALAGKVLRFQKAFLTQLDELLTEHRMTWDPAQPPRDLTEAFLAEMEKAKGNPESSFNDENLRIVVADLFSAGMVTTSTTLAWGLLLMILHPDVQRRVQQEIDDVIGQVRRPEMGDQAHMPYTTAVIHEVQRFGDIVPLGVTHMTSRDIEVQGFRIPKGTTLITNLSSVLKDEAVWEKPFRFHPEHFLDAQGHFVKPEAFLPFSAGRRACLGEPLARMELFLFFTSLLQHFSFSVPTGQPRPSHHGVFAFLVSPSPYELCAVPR

AC50 (Cytochrome P450 2D6): inconclusive
SMILES: Cc1cn([C@H]2C[C@H](O)[C@@H](COC(N)=O)O2)c(=O)[nH]c1=O

SMILES: C/C=C/Cn1c(SCc2ccccc2)nc2c1c(=O)[nH]c(=O)n2C
IC50 [1]: > 25 µM (inactive) | IC50 (Interleukin-8 [2]): > 25 µM (inactive) | IC50 (Interleukin-8 [3]): > 25 µM (inactive) | IC50 [4]: > 20 µM (inactive) | IC50 (HEK293 [5]): > 20 µM (inactive) | IC50 [6]: 18.6 µM (active) | IC50 (Tumor necrosis factor [7]): > 20 µM (inactive) | IC50 (HEK293 [8]): > 20 µM (inactive) | IC50 [9]: > 20 µM (inactive)

SMILES: O=C(Nc1nnc(-c2ccccc2)o1)c1ccc(Cl)cc1
EC50 [10]: 0.26 µM (active) | EC50 [11]: 3.14 µM (active) | EC50 [12]: 3.15 µM (active) | EC50 (Streptococcus): 0.67 µM (active) | IC50 (Exodeoxyribonuclease V): 44.2 µM (inactive) | IC50 [13]: 47 µM (inactive)

IC50 [14]: 11.2 µM (inactive) | IC50 [15]: 9.87 µM (active) | IC50 [16]: 9.31 µM (active) | IC50 [17]: 4.77 µM (active)
SMILES: COc1cccc(C)c1NC(=O)c1ccc(-c2cc(Cl)ccc2Cl)o1

SMILES: CC(=O)Nc1nc2ccccc2n1S(=O)(=O)c1ccc(C)cc1
IC50 (Tumor necrosis factor [18]): > 20 µM (inactive) | IC50 [19]: 3.8 µM (active) | IC50 [20]: > 20 µM (inactive) | IC50 (HEK293 [21]): > 20 µM (inactive)

EC50 (Mu-type opioid receptor [22]): > 32 µM (inactive) | EC50 [23]: > 32 µM (inactive) | IC50 [24]: > 32 µM (inactive) | IC50 (Mu-type opioid receptor [25]): > 32 µM (inactive) | EC50 [26]: > 32 µM (inactive) | IC50 [27]: > 32 µM (inactive) | IC50 [28]: > 10 µM (inactive)
SMILES: O=C(NC(NC(=S)Nc1cccc(Br)c1)C(Cl)(Cl)Cl)OCc1ccccc1 (stereo unspecified)

SMILES: Cc1ccc(-c2cc(C(=O)N/N=C/c3ccccc3O)[nH]n2)o1
AC50 [29]: 8.36 µM (active) | EC50 [30]: > 100 µM (inactive) | EC50 [31]: 5.71 µM (active) | EC50 [32]: 6.54 µM (active) | EC50 [33]: 3.89 µM (active)

Reference: ChEMBL document CHEMBL1201862, “PubChem BioAssay data set” (2004)
